In patent US20050026911A1, “Benzotriazapinone salts and methods for using same” (priority 2003, published 2005):

These compounds were tested against T1, gastrin (CCK2) receptors (Rattus norvegicus, UniProt P30553) (assay: gastrin (CCK2) antagonist activity in an immature rat stomach assay). Conditions: pentagastrin dose-response curves, acid secretion, read-out: pKB rat stomach (converted).
T1 construct: The stomach was excised and flushed with ca. 1 ml of unbuffered physiological saline solution; from tissue; host or cells: isolated whole stomach of immature rats (ca. 21 days old)
T1 sequence (P30553 1-452): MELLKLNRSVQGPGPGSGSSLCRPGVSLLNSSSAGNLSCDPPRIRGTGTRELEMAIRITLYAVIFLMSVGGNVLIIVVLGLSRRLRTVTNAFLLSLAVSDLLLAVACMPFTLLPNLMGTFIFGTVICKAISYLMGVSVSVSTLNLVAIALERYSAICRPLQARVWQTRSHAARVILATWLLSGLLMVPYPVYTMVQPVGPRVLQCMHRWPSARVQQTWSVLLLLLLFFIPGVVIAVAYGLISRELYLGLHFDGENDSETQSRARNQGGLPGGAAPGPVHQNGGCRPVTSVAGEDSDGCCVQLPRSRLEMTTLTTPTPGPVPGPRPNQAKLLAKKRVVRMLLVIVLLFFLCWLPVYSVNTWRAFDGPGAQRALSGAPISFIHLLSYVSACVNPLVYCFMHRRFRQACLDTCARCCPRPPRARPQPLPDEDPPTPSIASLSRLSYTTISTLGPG
Experimental: The compounds of the examples were tested for gastrin (CCK2) antagonist activity in an immature rat stomach assay. The procedure was as follows:
The oesophagus of immature rats (33-50 g, ca. 21 days old) was ligated at the level of the cardiac sphincter and the duodenal sphincter was cannulated. The stomach was excised and flushed with ca. 1 ml of unbuffered physiological saline solution. The fundus was punctured and cannulated. A further 4-5 ml of unbuffered solution was flushed through the stomach to ensure the preparation was not leaking. […] The stomach was continuously perfused at a rate of 1 ml min^−1 with unbuffered solution gassed with 100% O2 with the perfusate passing over an internally referenced pH-electrode fixed 12 cm above the stomach.
After 120 min of stabilisation the drugs were added directly to the serosal solution in the organ bath and after a further 60 min cumulative pentagastrin dose-response curves were started.
For `CNc1cc(NC(=O)CN2N=C(C3CCCCC3)c3ccccc3N(CC(O)C(C)(C)C)C2=O)cc(C(=O)OC)c1` (centres unmarked) [Example 78, 3-{2-[5-Cyclohexyl-1 (−2-hydroxy-3,3-dimethyl-butyl)-2-oxo-1,2-dihydro-3H-1,3,4-benzotriazepin-3-yl]-acetylamino}-5-methylamino-benzoic acid methyl ester], the Kb was 324 nM. Compound `O=C(CN1N=C(C2CCCCC2)c2ccccc2N(CC(=O)C2CCCCC2)C1=O)Nc1cccc(C(=O)O)c1` [Example 79, 3-{2-[5-Cyclohexyl-1-(2-cyclohexyl-2-oxo-ethyl)-2-oxo-1,2-dihydro-3H-1,3,4-benzotriazepin-3-yl]-acetylamino}-benzoic acid] has a Kb of 2.51 nM. `O=C(O)Cc1cccc(NC(=O)CN2N=C(C3CCCCC3)c3ccccc3N(CC(=O)C3CCCCC3)C2=O)c1` [Example 80, (3-{2-[5-Cyclohexyl-1-(2-cyclohexyl-2-oxo-ethyl)-2-oxo-1,2-dihydro-3H-1,3,4-benzotriazepin-3-yl]-acetylamino}-phenyl)-acetic acid] showed a Kb of 3.39 nM. With `O=C(O)Cc1cccc(NC(=O)CN2N=C(c3ccccn3)c3ccccc3N(CC(=O)C3CCCC3)C2=O)c1` [Example 81] the Kb was 72.4 nM. Compound `CC1(C(=O)CN2C(=O)N(CC(=O)Nc3cccc(CC(=O)O)c3)N=C(C3CCCCC3)c3ccccc32)CCCC1` [Example 82, [3-(2-{5-Cyclohexyl-1-[2-(1-methyl-cyclopentyl)-2-oxo-ethyl]-2-oxo-1,2-dihydro-3H-1,3,4-benzotriazepin-3-yl}-acetylamino)-phenyl]-acetic acid] has a Kb of 9.55 nM. `CC(C)(C)C(=O)CN1C(=O)N(CC(=O)Nc2cccc(O)c2)N=C(C2CCCCC2)c2ccccc21` [Example 84, 2-[5-Cyclohexyl-1-(3,3-dimethyl-2-oxo-butyl)-2-oxo-1,2-dihydro-3H-1,3,4-benzotriazepin-3-yl]-N-(3-hydroxy-phenyl)-acetamide] showed a Kb of 27.5 nM. Work on `CC(C)(C)C(=O)CN1C(=O)N(CC(=O)Nc2cccc(SCc3nn[nH]n3)c2)N=C(C2CCCCC2)c2ccccc21` [Example 86, 2-[5-Cyclohexyl-1-(3,3-dimethyl-2-oxo-butyl)-2-oxo-1,2-dihydro-3H-1,3,4-benzotriazepin-3-yl]-N-[3-(4H-tetrazol-5-ylmethylsutfanyl)-phenyl]-acetamide] yielded a Kb of 3.39 nM. With `CC1(C(=O)CN2C(=O)N(CC(=O)Nc3cccc(-c4nc(=O)o[nH]4)c3)N=C(C3CCCCC3)c3ccccc32)CCCC1` [Example 87] the Kb was 3.16 nM. Compound `CC1(C(=O)CN2C(=O)N(CC(=O)Nc3cccc(C(=O)O)c3)N=C(C3CCCCC3)c3ccccc32)CCCC1` [Example 88, 3-(2-{5-Cyclohexyl-1-[2-(1-methyl-cyclopentyl)-2-oxo-ethyl]-2-oxo-1,2-dihydro-3H-1,3,4-benzotriazepin-3-yl}-acetylamino)-benzoic acid] has a Kb of 11.7 nM. Work on `CC(C)(C)C(=O)CN1C(=O)N(CC(=O)Nc2cccc(-n3ccnc3)c2)N=C(C2CCCCC2)c2ccccc21` [Example 89, 2-[5-Cyclohexyl-1-(3,3-dimethyl-2-oxo-butyl)-2-oxo-1,2-dihydro-3H-1,3,4-benzotriazepin-3-yl]-N-[3-(1H-imidazol-1-yl)-phenyl]-acetamide] yielded a Kb of 871 nM. Work on `Cc1cc(NC(=O)CN2N=C(C3CCCCC3)c3ccccc3N(CC(=O)C(C)(C)C)C2=O)cc(C(=O)O)c1` [Example 91, 3-{2-[5-Cyclohexyl-1-(3,3-dimethyl-2-oxo-butyl)-2-oxo-1,2-dihydro-3H-1,3,4-benzotriazepin-3-yl]-acetylamino}-5-methyl-benzoic acid] yielded a Kb of 40.7 nM. With `CC(C)(C)C(=O)CN1C(=O)N(CC(=O)Nc2ccc3ncn(CC(=O)O)c3c2)N=C(C2CCCCC2)c2ccccc21` [Example 94, (6-{2-[5-Cyclohexyl-1-(3,3-dimethyl-2-oxo-butyl)-2-oxo-1,2-dihydro-3H-1,3,4-benzotriazepin-3-yl]-acetylamino)-benzimidazol-1-yl)-acetic acid] the Kb was 155 nM. Compound `CC(C)(C)OC(=O)CN1C(=O)N(CC(=O)Nc2cccc(C(=O)O)c2)N=C(C2CCCCC2)c2ccccc21` [Example 95, 3-[2-(1-tert-Butoxycarbonylmethyl-5-cyclohexyl-2-oxo-1,2-dihydro-3H-1,3,4-benzotriazepin-3-yl)-acetylamino]-benzoic acid] has a Kb of 3.98 nM. `CN(CC(=O)O)c1cccc(NC(=O)CN2N=C(C3CCCCC3)c3ccccc3N(CC(=O)C(C)(C)C)C2=O)c1` [Example 96, [(3-{2-[5-Cyclohexyl-1-(3,3-dimethyl-2-oxo-butyl)-2-oxo-1,2-dihydro-3H-1,3,4-benzotriazepin-3-yl]-acetylamino}-phenyl)-methyl-amino]-acetic acid] was tested, and the Kb was 7.24 nM. `CC(C)(C)C(=O)CN1C(=O)N(CC(=O)Nc2ccc3cnn(CC(=O)O)c3c2)N=C(C2CCCCC2)c2ccccc21` [Example 99, (6-{2-[5-Cyclohexyl-1-(3,3-dimethyl-2-oxo-butyl)-2-oxo-1,2-dihydro-3H-1,3,4-benzotriazepin-3-yl]-acetylamino}-indazol-1-yl)-acetic acid] was tested, and the Kb was 14.1 nM. Compound `O=C(O)CSc1cccc(NC(=O)CN2N=C(C3CCCCC3)c3ccccc3N(CC(=O)C3CCCCC3)C2=O)c1` [Example 100, (3-{2-[5-Cyclohexyl-1-(2-cyclohexyl-2-oxo-ethyl)-2-oxo-1,2-dihydro-3H-1,3,4-benzotriazepin-3-yl]-acetylamino}-phenylsulfanyl)-acetic acid] has a Kb of 0.575 nM. With `CNc1ccccc1NC(=O)CN1N=C(C2CCCCC2)c2ccccc2N(CC(=O)C(C)(C)C)C1=O` [Example 101, 2-[5-Cyclohexyl-1-(3,3-dimethyl-2-oxo-butyl)-2-oxo-1,2-dihydro-3H-1,3,4-benzotriazepin-3-yl]-N-(2-methylamino-phenyl)-acetamide] the Kb was 129 nM. Compound `CC1CCC(C2=NN(CC(=O)Nc3cccc(C(=O)O)c3)C(=O)N(CC(=O)C(C)(C)C)c3ccccc32)CC1` (centres unmarked) [Example 102, 3-{2-[1-(3,3-Dimethyl-2-oxo-butyl)-5-(4-methyl-cyclohexyl)-2-oxo-1,2-dihydro-3H-1,3,4-benzotriazepin-3-yl]-acetylamino}-benzoic acid] has a Kb of 0.776 nM. In the case of `CC1CCC(C2=NN(CC(=O)Nc3cccc(CC(=O)O)c3)C(=O)N(CC(=O)C(C)(C)C)c3ccccc32)CC1` (centres unmarked) [Example 103, (3-{2-[1-(3,3-Dimethyl-2-oxo-butyl)-5-(4-methyl-cyclohexyl)-2-oxo-1,2-dihydro-3H-1,3,4-benzotriazepin-3-yl]-acetylamino}-phenyl)-acetic acid], the Kb is reported as 3.98 nM. Work on `CNc1cc(NC)cc(NC(=O)CN2N=C(C3CCCCC3)c3ccccc3N(CC(=O)C(C)(C)C)C2=O)c1` [Example 104, N-(3,5-Bis-methylamino-phenyl)-2-[5-cyclohexyl-1-(3,3-dimethyl-2-oxo-butyl)-2-oxo-1,2-dihydro-3H-1,3,4-benzotriazepin-3-yl]-acetamide] yielded a Kb of 44.7 nM. `CNc1cc(NC(=O)CN2N=C(C3CCCCC3)c3ccccc3N(CC(=O)C(C)(C)C)C2=O)ccc1OC` [Example 105, 2-[5-Cyclohexyl-1-(3,3-dimethyl-2-oxo-butyl)-2-oxo-1,2-dihydro-3H-1,3,4-benzotriazepin-3-yl]-N-(4-methoxy-3-methylamino-phenyl)-acetamide] was tested, and the Kb was 27.5 nM. In the case of `CC(C)(C)C(=O)CN1C(=O)N(CC(=O)Nc2cccc(CO)n2)N=C(C2CCCCC2)c2ccccc21` [Example 106, 2-[5-Cyclohexyl-1-(3,3-dimethyl-2-oxo-butyl)-2-oxo-1,2-dihydro-3H-1,3,4-benzotriazepin-3-yl]-N-(6-hydroxymethyl-pyridin-2-yl)-acetamide], the Kb is reported as 129 nM. For `Cc1nc(-c2cccc(NC(=O)CN3N=C(C4CCCCC4)c4ccccc4N(CC(=O)C(C)(C)C)C3=O)c2)cs1` [Example 107], the Kb was 3.31 nM. Compound `CC(C)(C)C(=O)CN1C(=O)N(CC(=O)Nc2cccc(-c3csc(C(=O)O)n3)c2)N=C(C2CCCCC2)c2ccccc21` [Example 108, 4-(3-{2-[5-Cyclohexyl-1-(3,3-dimethyl-2-oxo-butyl)-2-oxo-1,2-dihydro-3H-1,3,4-benzotriazepin-3-yl]-acetylamino}-phenyl)-thiazole-2-carboxylic acid] has a Kb of 37.2 nM. For `CC(C)(CO)C(=O)CN1C(=O)N(CC(=O)Nc2cccc(CC(=O)O)c2)N=C(C2CCCCC2)c2ccccc21` [Example 110, (3-{2-[5-Cyclohexyl-1-(4-hydroxy-3,3-dimethyl-2-oxo-butyl)-2-oxo-1,2-dihydro-3H-1,3,4-benzotriazepin-3-yl]-acetylamino}-phenyl)-acetic acid], the Kb was 93.3 nM. In the case of `O=C(CN1N=C(C2CCCCC2)c2ccccc2N(CC(=O)C2CCCCC2)C1=O)Nc1cccc(-c2nc(=O)o[nH]2)c1` [Example 111, 2-[5-Cyclohexyl-1-(2-cyclohexyl-2-oxo-ethyl)-2-oxo-1,2-dihydro-3H-1,3,4-benzotriazepin-3-yl]-N-[3-(5-oxo-2,5-dihydro-[1,2,4]oxadiazol-3-yl)-phenyl]-acetamide], the Kb is reported as 2.19 nM.
